# According to US20200352976A1, “HYPOMETHYLATING AGENTS FOR USE IN TREATMENT OF CANCER” (Otsuka Pharmaceutical Co., Ltd, priority 2019, published 2020):
# Columns and labels:
# Type in all cases: in vivo, human
# [1] = system: intermediate-risk or high-risk myelodysplastic syndromes (MDS) or chronic myelomonocytic leukemia (CMML); assay: Phase 1/2 trial (Phase 2 portion) with subgroup and landmark analyses: response, survival, transfusion independence; conditions: for Median survival: all 102 patients
# Description: A multicenter, open-label, randomized, phase 1/2 trial was performed with Compound I-1 to compare the activity and safety of two doses of Compound I-1 in hypomethylating agent treatment naïve or relapsed or refractory patients with intermediate-risk or high-risk myelodysplastic syndromes.
# Patients enrolled in the study were aged 18 years or older, with a confirmed diagnosis of IPSS intermediate-1, intermediate-2, or high-risk myelodysplastic syndromes (MDS), or chronic myelomonocytic leukemia (CMML). Patients were either hypomethylating agent treatment-naïve or had relapsed or refractory disease after previous hypomethylating agent treatment as determined by the investigators' judgment (two or more complete full-dose cycles of a hypomethylating agent). The IPSS score in patients with relapsed or refractory myelodysplastic syndromes had been established at the time of their initial diagnosis. Eligible patients had Eastern Cooperative Oncology Group performance status of 0-2; adequate renal function (serum creatinine ≤1.5-times the upper limit of normal [ULN]) and adequate hepatic function (total bilirubin ≤2-times the ULN, and aspartate and alanine transaminases ≤2.5-times the ULN); had not undergone major surgery within 4 weeks or hemopoietic stem-cell transplantation within 8 weeks; or received chemotherapy within 2 weeks or nitrosoureas within 6 weeks of Compound I-1 treatment (hydroxycarbamide was allowed during treatment cycle 1). A patient with previous allogeneic stem-cell transplants was only eligible if the patient had no evidence of active graft-versus-host disease and had discontinued immunosuppressive therapy 2 weeks or more before receiving the study drug.
# Patients received subcutaneous Compound I-1 at 60 or 90 mg/m^2 on days 1-5 of a 28-day treatment cycle. The intention was to provide the standard planned dose for four or more cycles; dose reduction could be instituted, as necessary, and the length of treatment cycles could be extended up to 42 days to allow for bone-marrow recovery in cases of severe cytopenia. Additional delay or dose reduction was allowed for recovery from toxicity in previous cycles based on the physician's judgment.
# Hematological responses were monitored by analysis of blood and bone marrow aspiration. After the initial bone marrow aspirate screening at baseline, the results of peripheral blood assessments determined the frequency of subsequent bone marrow aspiration to confirm response or assess drug-related bone marrow toxicity. Complete peripheral blood counts and white blood cell differentials were measured at least once a week, including granulocyte numbers, platelet numbers, and hemoglobin concentration.
# The primary endpoint was overall response, which was a composite of complete response (CR), partial response, marrow complete response (mCR), and hematological improvement. Overall response was assessed by local investigators. Secondary endpoints included the individual components of overall response, time to response, duration of response, overall survival, blood transfusion and platelet transfusion independence at weeks 8 and 16, and safety, including the incidence of adverse events, and all-cause early mortality at 30, 60, and 90 days. Exploratory analyses were done to examine the association between baseline characteristics and overall response.
# Activity and safety endpoints were evaluated for all patients who received at least one dose of study drug, and no patients who received treatment were excluded from the analyses. […] Time to response and duration of response were summarized in days using descriptive statistics. Overall survival was analyzed using the Kaplan-Meier method, with survival time censored on the last date of contact if the patient was alive or lost to follow-up. Blood and platelet transfusion independence were summarized descriptively in the subset of patients who were transfusion-dependent at baseline. […]
# [2] = system: LINE-1 repeats (global DNA methylation); assay: LINE-1 methylation assay on whole blood (global DNA methylation), Phase 1/2 trial
# Description: Whole-blood samples were collected immediately before treatment, once a week during the first treatment cycle, and then on day 1 of subsequent cycles for demethylation analysis. Global DNA methylation was measured by the long interspersed nuclear element-1 (LINE-1) methylation assay. The LINE-1 assay measures methylation levels of LINE-1 repeats, which serve as a surrogate for global DNA methylation levels. Results of LINE-1 assays were used to assess and changes in methylation from baseline.
# Activity and safety endpoints were evaluated for all patients who received at least one dose of study drug, and no patients who received treatment were excluded from the analyses. […] Time to response and duration of response were summarized in days using descriptive statistics. Overall survival was analyzed using the Kaplan-Meier method, with survival time censored on the last date of contact if the patient was alive or lost to follow-up. Blood and platelet transfusion independence were summarized descriptively in the subset of patients who were transfusion-dependent at baseline. Change from baseline LINE-1 methylation and maximum LINE-1 demethylation were also summarized descriptively, with maximum LINE-1 demethylation defined as the largest percent decrease from baseline in methylation values by patient between days 8 and 22 of the first treatment cycle.
# [3] = Phase 3 trial pharmacokinetics and exposure response
# Description: A previously developed Population PK model was applied to calculate model-derived estimates for total cycle exposures (Cmax and AUC) from sparse PK samples collected in Cycle 1 for Compound I-1 and decitabine for use in exposure-response analysis for efficacy and safety. The analyses of exposure-efficacy and exposure-safety relationships were performed separately for patients who received Compound I-1 and patients who received decitabine IV. The following analyses were performed to assess relationships of CR with exposure for each exposure measure: frequencies of CR were tabulated and compared between tertiles of exposure; distributions of exposure were compared for patients with and without CR using box plots; and probability of CR was explored using logistic regression models.
# [4] = landmark analysis, at least 4 cycles (65 patients)
structure (smiles),measurement,setting,value
Nc1ncn([C@H]2CC(OP(=O)(O)OC[C@H]3O[C@@H](n4cnc5c(=O)[nH]c(N)nc54)CC3O)[C@@H](CO)O2)c(=O)n1 (stereo partly shown) [Compound I-1],12-month survival,[1]; 60 mg/m^2,67%
same,24-month survival,[1]; 60 mg/m^2,39%
same,Duration of response,[1]; 60 mg/m^2,295 days
same,Median overall survival,[1]; 60 mg/m^2,611 days
same,Partial response,[1]; 60 mg/m^2 (n = 53),0 patients
same,12-month survival,[1]; 90 mg/m^2,60%
same,24-month survival,[1]; 90 mg/m^2,30%
same,Duration of response,[1]; 90 mg/m^2,207 days
same,Median overall survival,[1]; 90 mg/m^2,399 days
same,Partial response,[1]; 90 mg/m^2 (n = 49),0 patients
same,Median survival,[1]; 4 or more treatment cycles,20.4 months
same,OS,[1]; 6 or more treatment cycles,23.8 months
same,OS hazard ratio,[1]; 6 or more vs less than 6 treatment cycles,0.41
same,Partial response,[1]; All patients (n = 102),0 patients
same,Median OS,[1]; Baseline BM Blasts >5%,12.3 months
same,Median OS,[1]; Baseline BM Blasts ≤5%,22.7 months
same,Median OS,[1]; Baseline ECOG PS 0-1,15.6 months
same,Median OS,[1]; Baseline ECOG PS 2,8.7 months
same,Median OS,[1]; Baseline RBCs Transfusion Dependent,11.7 months
same,Median OS,[1]; Baseline RBCs Transfusion Independent,20.4 months
same,Partial response,[1]; Relapsed or refractory (n = 53),0 patients
same,Median OS,[1]; TN MDS/CMML patients,23.4 months
same,Partial response,[1]; Treatment-naïve (n = 49),0 patients
same,Survival hazard ratio,[1]; at least 4 vs less than 4 treatment cycles,0.55
same,"Median duration of complete, partial or marrow complete response",[1]; entire population,203 days
same,Median overall survival,[1]; entire study population,460 days
same,Median OS,"[1]; landmark analysis, <4 cycles",15.2 m
same,Objective response (OR) rate,"[1]; landmark analysis, <4 cycles (26 patients)",15%
same,Median OS,"[1]; landmark analysis, <6 cycles",13.6 m
same,Objective response (OR) rate,"[1]; landmark analysis, <6 cycles (43 patients)",26%
same,Median OS,"[1]; landmark analysis, at least 4 cycles",20.4 m
same,Objective response,[1]; [4],44 patients
same,Objective response (OR) rate,[1]; [4],68%
same,OS HR,"[1]; landmark analysis, at least 4 vs <4 cycles",0.78
same,Median OS,"[1]; landmark analysis, at least 6 cycles",23.8 m
same,Objective response (OR) rate,"[1]; landmark analysis, at least 6 cycles (44 patients)",82%
same,OS HR,"[1]; landmark analysis, at least 6 vs <6 cycles",0.51
same,OS HR,"[1]; landmark, absence of objective response, at least 4 vs <4 cycles",0.82
same,OS HR,"[1]; landmark, absence of objective response, at least 6 vs <6 cycles",0.42
same,Median survival,[1]; less than 4 treatment cycles,8.7 months
same,OS,[1]; less than 6 treatment cycles,9.1 months
same,Median time to response,"[1]; patients with CR or marrow CR, entire study population",85 days
same,Median OS,[1]; r/r MDS/CMML patients,11.7 months
same,2-year survival rate,[1]; relapsed or refractory cohort,25%
same,Median overall survival,[1]; relapsed or refractory cohort,352 days
same,Median overall survival,"[1]; relapsed/refractory, 60 mg/m^2",9.1 months
same,Median overall survival,"[1]; relapsed/refractory, 90 mg/m^2",12.3 months
same,2-year survival rate,[1]; treatment-naïve cohort,44%
same,Median overall survival,[1]; treatment-naïve cohort,703 days
same,Mean maximum LINE-1 demethylation,[2]; 60 mg/m^2,23.9%
same,Mean maximum LINE-1 demethylation,[2]; 90 mg/m^2,28.2%
same,Mean maximum LINE-1 demethylation,[2]; relapsed or refractory,28.9%
same,Time of maximum extent of global DNA demethylation,[2]; returned to pretreatment levels by day 28,~8 days
same,Mean maximum LINE-1 demethylation,[2]; treatment-naïve,28.6%
same,Mean maximum LINE-1 demethylation,[2]; with objective treatment response,28.1%
same,Mean maximum LINE-1 demethylation,[2]; without objective treatment response,29.4%
same,Exposure to active metabolite decitabine,[3]; Compound I-1 SC vs decitabine IV,longer exposure to the active metabolite decitabine
same,Time of highest mean plasma Compound I-1 concentration (first collection time point),[3]; after SC injection,1.5 h
